Assay results: patent US20090227606A1, “Methods for Preventing or Treating Acute and Chronic Pain” (priority 2006, published 2009)
Entries after “also recorded” stand apart in the source; their conditions may differ.

Assays:
MCP-1 (CCL2) = experiment: ELISA of MCP-1 release from cultured astrocytes; format: cell-based, rat; details: seven days
Method: (§1) After approximately 14 days (2 days after subplating into plates, DIV 14) astrocytes had formed a confluent monolayer. […] Phase contrast microscopy was then carried out in order to assess the morphology of cells after the various treatments. Length of astrocyte processes was quantified by measuring all processes in 2-3 phase contrast images/group by an independent observer, blinded to the treatment groups using Image J v1.34s (National Institutes of Health, Bethesda, Md.).
Standard ELISA was performed for quantitative determination of MCP-1 and MIP-2 protein in cell culture supernatant. Assays were carried out according to the manufacturer's specifications (Biosource, Camarillo, Calif.) using the sandwich enzyme immunoassay procedure. Optical density at 450 nm was obtained using the MRX Revelations program (Dynex Technologies, Chantilly, Va.) and relative protein concentrations were determined by comparing samples to the standard curve generated.

GLT-1 [1] = experiment: Western blot of ipsilateral lumbar spinal cord, GLT-1 protein; format: in vivo, rat; details: day 12 post-transection
Method: Tissue was collected from 4-5 rats/group on postoperative days 4 or 12. In order to obtain both mRNA and protein from the same tissue sample, the L5 region of the spinal cord (ipsilateral to the injury), was isolated and placed in PBS supplemented with protease inhibitor cocktail (1:1000, Sigma Chemical Co., St. Louis, Mo.) and RNase inhibitor (0.75 U/μL Ambion, Austin, Tex.). Samples were sonicated in five one-second bursts at half-maximal power, centrifuged at 6500 rpm for 15 minutes at 4° C. Protein-containing supernatants were collected and stored at −80° C. until further processing by Western blot analysis. The pellet was treated with TRIzol reagent (Invitrogen, Carlsbad, Calif.) for the extraction of total RNA according to the manufacturer's specifications.
Protein obtained from L5 lumbar spinal cord was quantified using the Lowry method (DC assay, Bio-Rad, Hercules, Calif.). Forty micrograms of protein and standard protein markers were subjected to SDS polyacrylamide gel electrophoresis (7.5% gel, Bio-Rad, Hercules, Calif.) and id transferred to polyvinylidene difluoride (PVDF, Bio-Rad, Hercules, Calif.) filters. Nonspecific binding was blocked by incubation with 5% milk/PBS-T at room temperature for 1 hour followed by incubation overnight at 4° C. with monoclonal guinea pig anti-GLT-1 or guinea pig anti-GLAST (1:2500, Chemicon). […]

GLT-1 [2] = experiment: Western blot of cultured astrocytes, GLT-1 protein; format: cell-based, rat
Method: as §1
Cells were scraped into PBS containing a protease inhibitor cocktail (1:1000, Sigma Chemical Co., St. Louis, Mo.) and then lysed by sonication in 5 one-second pulses. The samples were stored at −80° C. until use. Total protein was determined using the Lowry method (DC assay, Bio-Rad, Hercules, Calif.). Forty micrograms of protein (diluted in sample buffer and boiled) and standard protein markers were subjected to SDS/7.5% polyacrylamide gel electrophoresis and transferred to polyvinylidene difluoride (PVDF) membranes. Nonspecific binding was blocked by incubation with 5% milk/PBS-Tween at room temperature for 1 hour followed by incubation overnight at 4° C. with rabbit anti-GLT-1 (1:500) or guinea pig anti-GLAST (1:2500). The following day, blots were washed and incubated for 1 hour at room temperature with goat anti-rabbit HRP-conjugated secondary (1:3000) or goat anti-guinea pig HRP-conjugated secondary antibody (1:5000) and visualized with enhanced chemiluminescence (ECL). Images were obtained using the Typhoon Imaging System (Amersham-GE Healthcare, Piscataway, N.J.). Finally, blots were incubated for 15 minutes in stripping buffer and reprobed with a monoclonal mouse anti-β-actin antibody (1:10,000) as a loading control. Densitometric analysis was performed using ImageQuant 5.2 (Molecular Dynamics, GE Healthcare, Piscataway, N.J.).

cAMP = cAMP levels in treated astrocytes, radio-receptor competition assay; format: cell-based, rat; details: days 3 and 7
Method: Subsequently, cells were harvested and boiled for 3 minutes followed by high-speed (8,000×g) centrifugation. Fifty microliters of the resultant supernatant (total of 300 μl) was used to determine cAMP levels in the competition assay. cAMP levels were measured using a radio-receptor competition assay. In brief, [^3H] cAMP was used in competition for a cAMP binding protein (PKA) against known concentrations of non-radiolabeled cAMP, followed by determination of the unknowns. The reaction was allowed to proceed for 2 hours at 4° C. Charcoal was used to remove excess unbound cAMP. Finally, samples were counted in 5 ml Liquiscint™ (National Diagnostics, Atlanta, Ga.).

Structure (SMILES): CCCn1cnc2c1c(=O)n(CCCCC(C)=O)c(=O)n2C [propentofylline]
- LPS-induced MCP-1 (CCL2) release (MCP-1 (CCL2); LPS 1 μg/ml, propentofylline 1000 μM, db-cAMP 250 μM): reversed by co-treatment with propentofylline; also recorded: significantly attenuated
- basal MCP-1 (CCL2) release, treatment alone (MCP-1 (CCL2); without LPS): had no effect
- GLT-1 protein compared to L5 transection alone (GLT-1 [1]): reversed with propentofylline treatment; also recorded: significantly elevated
- GLT-1 protein level, in words (GLT-1 [2]; 3 or 7 days, normalized to β-actin): dose-dependently increased levels of GLT-1 protein
- increase in GLT-1 protein levels (GLT-1 [2]; 7 days, high dose): 100 fold
- increase in GLT-1 protein levels (GLT-1 [2]; after 3 days of treatment): about 10 fold
- relative cAMP/db-cAMP levels (cAMP): did not lead to elevation in cAMP at 3 or 7 days; also recorded: did not enhance cAMP activity
